Data reported in ChEMBL document CHEMBL2046367, “Novel BACE1 inhibitors possessing a 5-nitroisophthalic scaffold at the P2 position” (Bioorg Med Chem Lett, 2012).

Tests used:
[1] = biological target: T1, Beta-secretase 1 (Homo sapiens, UniProt P56817); experiment: Inhibition of human recombinant BACE1 at 2 uM by FRET assay
[2] = biological target: T1, Beta-secretase 1; experiment: Inhibition of human recombinant BACE1 at 0.2 uM by FRET assay
[3] = biological target: T1, Beta-secretase 1; experiment: Inhibition of human recombinant BACE1 by FRET assay

T1 sequence (P56817 whole entry): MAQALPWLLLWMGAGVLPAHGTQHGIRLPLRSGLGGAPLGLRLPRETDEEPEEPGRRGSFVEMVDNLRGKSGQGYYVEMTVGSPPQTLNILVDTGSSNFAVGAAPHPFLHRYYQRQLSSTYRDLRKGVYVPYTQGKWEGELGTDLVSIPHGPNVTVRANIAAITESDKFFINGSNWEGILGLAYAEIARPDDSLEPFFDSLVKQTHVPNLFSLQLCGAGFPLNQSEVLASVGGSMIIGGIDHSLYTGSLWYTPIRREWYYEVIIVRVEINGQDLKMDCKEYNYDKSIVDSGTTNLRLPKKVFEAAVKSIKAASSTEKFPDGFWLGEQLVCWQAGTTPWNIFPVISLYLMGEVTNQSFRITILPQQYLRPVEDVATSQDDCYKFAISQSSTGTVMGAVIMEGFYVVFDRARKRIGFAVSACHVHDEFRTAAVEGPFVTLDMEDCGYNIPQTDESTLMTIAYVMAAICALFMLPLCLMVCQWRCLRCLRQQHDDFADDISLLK

inhibition [1] [%] | inhibition [2] [%] | IC50 [3] [nM] | Compound
33 | – | – | C[C@H]1COCN1C(=O)c1cc(C(=O)N[C@@H](Cc2ccccc2)[C@H](O)C(=O)Nc2cccc(-c3nn[nH]n3)c2)cc([N+](=O)[O-])c1
50 | – | – | O=C(N[C@@H](Cc1ccccc1)[C@H](O)C(=O)Nc1cccc(-c2nn[nH]n2)c1)c1cc(C(=O)N2COC[C@@H]2CC2CCCCC2)cc([N+](=O)[O-])c1
89 | 57 | – | COC[C@H]1CCCN1C(=O)c1cc(C(=O)N[C@@H](Cc2ccccc2)[C@H](O)C(=O)Nc2cccc(-c3nn[nH]n3)c2)cc([N+](=O)[O-])c1
0 | – | – | O=C(N[C@@H](Cc1ccccc1)[C@H](O)C(=O)Nc1cccc(-c2nn[nH]n2)c1)c1cc(C(=O)N2CCOCC2)cc([N+](=O)[O-])c1
71 | – | – | CC(C)(C)[C@H]1COCN1C(=O)c1cc(C(=O)N[C@@H](Cc2ccccc2)[C@H](O)C(=O)Nc2cccc(-c3nn[nH]n3)c2)cc([N+](=O)[O-])c1
92 | 59 | – | CCCC[C@H]1COCN1C(=O)c1cc(C(=O)N[C@@H](Cc2ccccc2)[C@H](O)C(=O)Nc2cccc(-c3nn[nH]n3)c2)cc([N+](=O)[O-])c1
93 | 57 | – | CCC[C@H]1COCN1C(=O)c1cc(C(=O)N[C@@H](Cc2ccccc2)[C@H](O)C(=O)Nc2cccc(-c3nn[nH]n3)c2)cc([N+](=O)[O-])c1
86 | 45 | – | CSCC[C@H]1COCN1C(=O)c1cc(C(=O)N[C@@H](Cc2ccccc2)[C@H](O)C(=O)Nc2cccc(-c3nn[nH]n3)c2)cc([N+](=O)[O-])c1
99 | 91 | 13 | O=C(N[C@@H](Cc1ccccc1)[C@H](O)C(=O)Nc1cccc(-c2nn[nH]n2)c1)c1cc(C(=O)N2COC[C@@H]2c2ccc(F)cc2)cc([N+](=O)[O-])c1
92 | 54 | – | CC[C@H]1COCN1C(=O)c1cc(C(=O)N[C@@H](Cc2ccccc2)[C@H](O)C(=O)Nc2cccc(-c3nn[nH]n3)c2)cc([N+](=O)[O-])c1
85 | 42 | – | CC(C)C[C@H]1COCN1C(=O)c1cc(C(=O)N[C@@H](Cc2ccccc2)[C@H](O)C(=O)Nc2cccc(-c3nn[nH]n3)c2)cc([N+](=O)[O-])c1
89 | 45 | – | O=C(N[C@@H](Cc1ccccc1)[C@H](O)C(=O)Nc1cccc(-c2nn[nH]n2)c1)c1cc(C(=O)N2COC[C@@H]2Cc2ccccc2)cc([N+](=O)[O-])c1
98 | 88 | 19 | O=C(N[C@@H](Cc1ccccc1)[C@H](O)C(=O)Nc1cccc(-c2nn[nH]n2)c1)c1cc(C(=O)N2COC[C@@H]2c2ccccc2)cc([N+](=O)[O-])c1
88 | 44 | – | CC(C)[C@H]1COCN1C(=O)c1cc(C(=O)N[C@@H](Cc2ccccc2)[C@H](O)C(=O)Nc2cccc(-c3nn[nH]n3)c2)cc([N+](=O)[O-])c1
94 | 62 | – | CCC(C)[C@H]1COCN1C(=O)c1cc(C(=O)N[C@@H](Cc2ccccc2)[C@H](O)C(=O)Nc2cccc(-c3nn[nH]n3)c2)cc([N+](=O)[O-])c1 (stereo partly specified)
24 | – | – | O=C(N[C@@H](Cc1ccccc1)[C@H](O)C(=O)Nc1cccc(-c2nn[nH]n2)c1)c1cc(C(=O)N2CCCC2)cc([N+](=O)[O-])c1

Further lines, the compound ahead of its results:

Compound | inhibition [1] [%] | inhibition [2] [%] | IC50 [3] [nM]
O=C(N[C@@H](Cc1ccccc1)[C@H](O)C(=O)Nc1cccc(-c2nn[nH]n2)c1)c1cc(C(=O)N2COC[C@@H]2Cc2c[nH]c3ccccc23)cc([N+](=O)[O-])c1 | 57 | – | –
CC(C)(C)c1cc(C(=O)N[C@@H](Cc2ccccc2)[C@H](O)C(=O)Nc2cccc(-c3nn[nH]n3)c2)cc(C(=O)N2COC[C@@H]2c2ccccc2)c1 | 63 | – | –
O=C(N[C@@H](Cc1ccccc1)[C@H](O)C(=O)Nc1cccc(-c2nn[nH]n2)c1)c1cc(C(=O)N2CCCCCCC2)cc([N+](=O)[O-])c1 | 80 | 38 | –
Cc1cc(C(=O)N[C@@H](Cc2ccccc2)[C@H](O)C(=O)Nc2cccc(-c3nn[nH]n3)c2)cc(C(=O)N2COC[C@@H]2c2ccccc2)c1 | 95 | 65 | –
O=C(N[C@@H](Cc1ccccc1)[C@H](O)C(=O)Nc1cccc(-c2nn[nH]n2)c1)c1cccc(C(=O)N2COC[C@@H]2c2ccccc2)c1 | 85 | 46 | 192
O=C(N[C@@H](Cc1ccccc1)[C@H](O)C(=O)Nc1cccc(-c2nn[nH]n2)c1)c1cc(C(=O)N2CCCCCCCC2)cc([N+](=O)[O-])c1 | 28 | – | –
O=C(N[C@@H](Cc1ccccc1)[C@H](O)C(=O)Nc1cccc(-c2nn[nH]n2)c1)c1cc(C(=O)N2CCCCC2)cc([N+](=O)[O-])c1 | 49 | – | –
CC(=O)Oc1cc(C(=O)N[C@@H](Cc2ccccc2)[C@H](O)C(=O)Nc2cccc(-c3nn[nH]n3)c2)cc(C(=O)N2COC[C@@H]2c2ccccc2)c1 | 79 | – | –
O=C(N[C@@H](Cc1ccccc1)[C@H](O)C(=O)Nc1cccc(-c2nnn[nH]2)c1)c1cc(I)cc(C(=O)N2COC[C@@H]2c2ccccc2)c1 | – | – | 34
O=C(N[C@@H](Cc1ccccc1)[C@H](O)C(=O)Nc1cccc(-c2nn[nH]n2)c1)c1cc(C(=O)N2COC[C@@H]2Cc2ccc(O)cc2)cc([N+](=O)[O-])c1 | 80 | – | –
CCCN(CCC)C(=O)c1cc(C(=O)N[C@@H](Cc2ccccc2)[C@H](O)C(=O)Nc2cccc(-c3nn[nH]n3)c2)cc([N+](=O)[O-])c1 | 79 | – | –
O=C(N[C@@H](Cc1ccccc1)[C@H](O)C(=O)Nc1cccc(-c2nn[nH]n2)c1)c1cc(I)cc(C(=O)N2COC[C@@H]2c2ccccc2)c1 | 98 | 78 | –
O=C(N[C@@H](Cc1ccccc1)[C@H](O)C(=O)Nc1cccc(-c2nn[nH]n2)c1)c1cc(Br)cc(C(=O)N2COC[C@@H]2c2ccccc2)c1 | 98 | 84 | 25
O=C(N[C@@H](Cc1ccccc1)[C@H](O)C(=O)Nc1cccc(-c2nn[nH]n2)c1)c1cc(C(=O)N2COC[C@@H]2c2cc(F)c(F)c(F)c2)cc([N+](=O)[O-])c1 | 81 | 41 | –
C[C@@H](NC(=O)c1cc(C(=O)N[C@@H](Cc2ccccc2)[C@H](O)C(=O)Nc2cccc(-c3nn[nH]n3)c2)cc([N+](=O)[O-])c1)c1ccc(F)cc1 | 87 | 50 | –
Nc1cc(C(=O)N[C@@H](Cc2ccccc2)[C@H](O)C(=O)Nc2cccc(-c3nn[nH]n3)c2)cc(C(=O)N2COC[C@@H]2c2ccccc2)c1 | 49 | – | –
C[C@@H](NC(=O)c1cc(C(=O)N[C@@H](Cc2ccccc2)[C@H](O)C(=O)Nc2cccc(-c3nn[nH]n3)c2)cc([N+](=O)[O-])c1)c1ccccc1 | 83 | 44 | –
O=C(O)c1cc(C(=O)N[C@@H](Cc2ccccc2)[C@H](O)C(=O)Nc2cccc(-c3nn[nH]n3)c2)cc(C(=O)N2COC[C@@H]2c2ccccc2)c1 | 91 | 60 | 122
Cc1cc(C(=O)N[C@@H](Cc2ccccc2)[C@H](O)C(=O)Nc2cccc(-c3nnn[nH]3)c2)cc(C(=O)N2COC[C@@H]2c2ccccc2)c1 | – | – | 67
O=C(N[C@@H](Cc1ccccc1)[C@H](O)C(=O)Nc1cccc(-c2nn[nH]n2)c1)c1cc(C(=O)N2CCCCCC2)cc([N+](=O)[O-])c1 | 60 | – | –
